{
  "source": "paper PMC9290910",
  "about": "“Neuropilin‐1 is required for endothelial cell adhesion to soluble vascular endothelial growth factor receptor 1” (The Febs Journal, 2021)",
  "molecules": {"B1": {"name": "Flt_(2‐11) peptide (peptide)", "peptide": "NITVTLKKFPL", "notes": "Unlabelled peptide, as co-injected in the SPR experiments; also called peptide Flt_(2‐11); source: synthetic peptide (Primm, Milan)"}},
  "key": {"[1]": {"system": "EC (HUVEC) adhesion to sVEGFR‐1", "experiment": "Cell adhesion assay, EC adhesion to sVEGFR‐1", "format": "cell-based, human", "conditions": "for effect on EC adhesion to sVEGFR‐1: peptide 20 µg·mL^−1 during adhesion, 37 °C, 1 h, 20 µg·mL^−1 VEGFR‐1/Fc coating, crystal violet, 540 nm, triplicate", "experimental": "(§1) Human umbilical vein endothelial cells (HUVEC) were isolated from freshly delivered umbilical cords, as previously described, cultured in Endothelial Cell Growth Medium‐2 Kit from Clonetics (EGM‐2, CC4176, Lonza, Basel, Switzerland), and used up to passage 6. For functional assays, HUVEC were resuspended in Endothelial Basal Medium‐2 (EBM‐2, CC3156, Lonza). A pool of cells derived from four different individuals was used.\n(§2) Solid support for adhesion assay was prepared by incubating immunological 96‐multiwell plates with 20 µg·mL^−1 VEGFR‐1/Fc chimera, or fibronectin solubilized in PBS. After 2 h, the coating solution was removed, and the well surface was blocked with 3% BSA in PBS for 18 h, before plating ECs in serum‐free medium at 3 × 10^4 cells per well. After incubation at 37 °C for 1 h, the wells were washed with PBS and attached cells were fixed with 3% formaldehyde and stained with 0.5% crystal violet. Attachment efficiency was determined by quantitative dye extraction and spectrophotometric measurement of the absorbance at 540 nm, using a Microplate reader 3550‐UV (Bio‐Rad). In competition experiments, peptides Flt2‐11, scrambled Flt2‐11, Flt2‐8 or Flt2‐5, at 20 µg·mL^−1, were added during the adhesion assay. Adhesion to peptide 12 was carried out by using maleic anhydride activated microplates (Reacti‐Bind, Pierce, Rockford, IL, USA) coated with 500 µg·mL^−1 of the peptide."}, "[2]": {"biological_target": "T1, NRP‐1/VEGFR‐1 interaction (Homo sapiens, UniProt O14786)", "T1 construct": "purchased R&D Systems 3870-N1 (NRP-1); 321-FL-050 (VEGFR-1/Fc)", "T1 sequence (O14786 22-644 isoform O14786-2 limits assumed)": "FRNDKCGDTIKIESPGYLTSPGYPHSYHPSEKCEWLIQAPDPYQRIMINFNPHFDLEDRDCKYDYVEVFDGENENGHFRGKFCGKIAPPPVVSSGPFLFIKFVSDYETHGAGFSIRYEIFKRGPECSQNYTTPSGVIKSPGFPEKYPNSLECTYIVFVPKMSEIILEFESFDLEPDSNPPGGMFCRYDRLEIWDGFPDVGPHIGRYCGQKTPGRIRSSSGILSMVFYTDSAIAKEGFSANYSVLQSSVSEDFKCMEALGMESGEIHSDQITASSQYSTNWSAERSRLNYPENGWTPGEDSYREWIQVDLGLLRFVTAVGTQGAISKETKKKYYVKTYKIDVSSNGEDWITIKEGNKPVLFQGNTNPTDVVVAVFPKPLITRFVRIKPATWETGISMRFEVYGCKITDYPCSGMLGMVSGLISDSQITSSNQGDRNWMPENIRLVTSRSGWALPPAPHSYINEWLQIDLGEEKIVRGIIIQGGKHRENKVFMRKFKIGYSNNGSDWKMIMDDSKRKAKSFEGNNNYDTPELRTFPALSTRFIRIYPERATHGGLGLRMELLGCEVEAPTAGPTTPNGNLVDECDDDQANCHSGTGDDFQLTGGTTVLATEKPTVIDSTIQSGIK", "experiment": "SPR, inhibition of NRP‐1/VEGFR‐1 interaction", "format": "binding", "conditions": "in words, NRP‐1 immobilized, VEGFR‐1 5 nM", "experimental": "Fig. 2 Flt2‐11 peptide inhibits NRP‐1 binding to VEGFR‐1. SPR analysis of the interaction between VEGFR‐1 and NRP‐1 in peptide absence (A), or presence of Flt2‐11 peptide (B) or scrambled Flt2‐11 peptide (C). NRP‐1 is immobilized on the sensor chip. (A) VEGFR‐1 is injected at different concentrations (from bottom to top: 0.6 nM, cyan; 1 nM, red; 2 nM, green; 2.5 nM, blue; and 5 nM, black). […] (B) VEGFR‐1 is injected at 5 nM together with peptide Flt2‐11 at different concentrations (from top to bottom: 0, black; 5 nM, blue; 15 nM, green; 45 nM, red; 100 nM, cyan; and 800 nM, magenta). […] (C) VEGFR‐1 is injected at 5 nM together with ‘scrambled’ Flt2‐11 peptide at different concentrations (from top to bottom: 0, black; 0.5 μM, blue; 950 μM, geen; and […], red).\nSPR experiments were carried out using a BIACORE X system (Biacore AB, Uppsala, Sweden). […] The reaction was carried out in 20 mM sodium acetate at pH 5.0, which is about 2 points below the theoretical NRP‐1 isoelectric point calculated using the program pI‐tool. […]\nRU express the mass concentration‐dependent changes in the observed SPR signal, that is, the refractive index on the sensor chip surface. Changes in this signal are determined by the interaction between the immobilized protein (i.e., either NRP‐1 or VEGFR‐1) with the analyte protein (i.e., VEGFR‐1/Fc, α5β1 integrin or semaphorin 3A). […]"}, "[3]": {"system": "EC (HUVEC) adhesion to fibronectin", "experiment": "Cell adhesion assay, EC adhesion to fibronectin", "format": "cell-based, human", "experimental": "as §1, §2"}, "[4]": {"system": "HUVEC migration towards sVEGFR‐1", "experiment": "Migration assay (Boyden chamber) towards sVEGFR‐1", "format": "cell-based, human", "conditions": "peptide 40 µM, 30 min preincubation; sVEGFR‐1 5 µg·mL^−1; 2 h, 37 °C; triplicate", "experimental": "as §1\nCell migration was analysed using Boyden chambers equipped with 8 µm pore diameter polycarbonate filters (Nuclepore, Whatman Incorporated, Clifton, NJ, USA). Human sVEGFR‐1 stimulus (5 µg·mL^−1) for chemotaxis was added to the lower chamber and HUVEC (1.5 × 10^5) were loaded into the upper chamber. […] Cells were then loaded into the Boyden chambers without removing the peptides, and migration towards sVEGFR‐1 was analysed. […] Cells from the upper surface were removed by wiping with a cotton swab, and the chemotactic response was determined by counting the migrating cells attached to the lower surface of the filter in 12 randomly selected microscopic fields (×200 magnification) per experimental condition. Quantification was performed by two independent observers, blinded to the examined condition."}, "Recombinant human NRP‐1": {"biological_target": "T2, Recombinant human NRP‐1 (human, UniProt O14786 22-856)", "T2 construct": "Neuropilin-1, human, recombinant soluble protein; see the vendor's datasheet (as far as I recall an extracellular fragment with a C-terminal His tag); also called Neuropilin‐1; soluble NRP‐1; source: bought: R&D Systems (3870‐N1)", "T2 sequence (looked up)": "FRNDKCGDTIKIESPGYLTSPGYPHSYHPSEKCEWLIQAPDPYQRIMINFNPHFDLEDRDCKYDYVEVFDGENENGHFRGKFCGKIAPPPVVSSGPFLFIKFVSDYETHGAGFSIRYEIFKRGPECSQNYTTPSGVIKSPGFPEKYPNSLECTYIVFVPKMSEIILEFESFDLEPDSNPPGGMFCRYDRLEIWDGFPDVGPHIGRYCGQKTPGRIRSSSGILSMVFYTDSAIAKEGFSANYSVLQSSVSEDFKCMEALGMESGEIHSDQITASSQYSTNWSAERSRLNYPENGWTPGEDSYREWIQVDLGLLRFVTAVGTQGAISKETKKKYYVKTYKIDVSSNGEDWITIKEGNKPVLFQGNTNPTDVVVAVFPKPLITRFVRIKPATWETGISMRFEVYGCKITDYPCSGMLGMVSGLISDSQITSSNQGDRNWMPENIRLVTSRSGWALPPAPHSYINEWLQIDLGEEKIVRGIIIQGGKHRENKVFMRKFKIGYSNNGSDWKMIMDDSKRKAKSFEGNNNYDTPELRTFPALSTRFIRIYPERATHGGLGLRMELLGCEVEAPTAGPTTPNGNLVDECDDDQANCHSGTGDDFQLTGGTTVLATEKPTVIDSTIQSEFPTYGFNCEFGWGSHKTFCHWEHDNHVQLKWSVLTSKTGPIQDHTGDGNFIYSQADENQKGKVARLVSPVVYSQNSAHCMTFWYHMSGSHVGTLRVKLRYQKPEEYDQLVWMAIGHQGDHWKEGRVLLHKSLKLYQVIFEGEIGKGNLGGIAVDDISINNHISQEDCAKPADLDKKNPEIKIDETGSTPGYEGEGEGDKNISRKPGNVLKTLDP", "experiment": "SPR; competition: NRP-1 immobilised by amine coupling; protein analyte at a fixed concentration (VEGFR-1/Fc 5 nM; α5β1 integrin 200 nM; semaphorin 3A 200 nM) injected together with peptide at different concentrations; HEPES-buffered saline", "conditions": "both partners purified"}, "[5]": {"conditions": "ECs pretreated with soluble NRP‐1"}},
  "note": "“Also recorded” adds a separate entry of the source.",
  "data": [
    {"molecule": "LVPLKIKNTFT [scrambled Flt2‐11, containing the same residues as Flt2‐11 but in a different order, reference compound]", "values": [
      {"measurement": "effect on EC adhesion to sVEGFR‐1", "setting": "[1]", "result": "does not affect EC adhesion"},
      {"measurement": "effect on NRP‐1/VEGFR‐1 (sVEGFR‐1) interaction", "setting": "[2]", "result": "had no effect on NRP‐1/VEGFR‐1 interaction; also recorded: inhibits NRP‐1/VEGFR‐1 interaction only at high concentrations"},
      {"measurement": "effect on EC adhesion to fibronectin", "setting": "[3]; peptide 20 µg·mL^−1 during adhesion, 37 °C, 1 h, 20 µg·mL^−1 fibronectin coating, crystal violet, 540 nm, triplicate", "result": "does not affect EC adhesion"}
    ]},
    {"molecule": "NITVT [Flt2‐5, Flt2‐11 peptide variant comprising the first five N‐terminal residues]", "values": [
      {"measurement": "effect on EC adhesion to sVEGFR‐1", "setting": "[1]", "result": "same ability as the parent Flt2‐11 peptide to inhibit cell adhesion to; also recorded: able to significantly inhibit EC adhesion; also recorded: efficacy comparable to that of the parent eleven‐residue Flt2‐11 peptide"},
      {"measurement": "effect on EC migration towards sVEGFR‐1", "setting": "[4]", "result": "same ability as the parent Flt2‐11 peptide to inhibit cell adhesion to, and migration towards, sVEGFR‐1; also recorded: migration towards, sVEGFR‐1 (Fig. 6C), to a similar extent as the Flt2‐11 peptide; also recorded: efficacy comparable to that of the parent eleven‐residue Flt2‐11 peptide"},
      {"measurement": "effect on NRP‐1/VEGFR‐1 (sVEGFR‐1) interaction", "setting": "[2]", "result": "inhibiting NRP‐1/sVEGFR‐1 interaction as well"}
    ]},
    {"molecule": "soluble NRP‐1: Recombinant human NRP‐1 (3870‐N1), R&D Systems", "values": [
      {"measurement": "effect of soluble NRP‐1 on EC adhesion to sVEGFR‐1", "setting": "[1]; [5]", "result": "not detectably altered"},
      {"measurement": "effect of soluble NRP‐1 on EC adhesion to sVEGFR‐1", "setting": "[1]; soluble NRP‐1 on coated plates prior to EC addition", "result": "impaired"},
      {"measurement": "effect of soluble NRP‐1 on EC adhesion to fibronectin", "setting": "[3]; [5]", "result": "not detectably altered"}
    ]},
    {"molecule": "B1", "values": [
      {"measurement": "Ki", "setting": "Recombinant human NRP‐1", "result": 20, "unit": "nM"}
    ]}
  ]
}
